Read-outs that look alike come from different tables or passages of the source.
Experiments:
Experiment in all cases: biochemical
Type in all cases: binding
panel of 442 kinases [1] = molecular target: T1, panel of 442 kinases (Homo sapiens, UniProt P00519, F317I); details: for remaining activity at 1 µM: read-out: % of control at 1 µM; for remaining activity at 10 µM: read-out: % of control at 10 µM
T1 construct: purchased Ambit Biosciences (scanMAXX KINOMEscan)

panel of 442 kinases [2] = molecular target: T2, panel of 442 kinases (Homo sapiens, UniProt P00533, G719C); details: EGFR(G719C); for remaining activity at 1 µM: read-out: % of control at 1 µM
T2 construct: purchased Ambit Biosciences (scanMAXX KINOMEscan)
T2 sequence (P00533 25-1210 G719C): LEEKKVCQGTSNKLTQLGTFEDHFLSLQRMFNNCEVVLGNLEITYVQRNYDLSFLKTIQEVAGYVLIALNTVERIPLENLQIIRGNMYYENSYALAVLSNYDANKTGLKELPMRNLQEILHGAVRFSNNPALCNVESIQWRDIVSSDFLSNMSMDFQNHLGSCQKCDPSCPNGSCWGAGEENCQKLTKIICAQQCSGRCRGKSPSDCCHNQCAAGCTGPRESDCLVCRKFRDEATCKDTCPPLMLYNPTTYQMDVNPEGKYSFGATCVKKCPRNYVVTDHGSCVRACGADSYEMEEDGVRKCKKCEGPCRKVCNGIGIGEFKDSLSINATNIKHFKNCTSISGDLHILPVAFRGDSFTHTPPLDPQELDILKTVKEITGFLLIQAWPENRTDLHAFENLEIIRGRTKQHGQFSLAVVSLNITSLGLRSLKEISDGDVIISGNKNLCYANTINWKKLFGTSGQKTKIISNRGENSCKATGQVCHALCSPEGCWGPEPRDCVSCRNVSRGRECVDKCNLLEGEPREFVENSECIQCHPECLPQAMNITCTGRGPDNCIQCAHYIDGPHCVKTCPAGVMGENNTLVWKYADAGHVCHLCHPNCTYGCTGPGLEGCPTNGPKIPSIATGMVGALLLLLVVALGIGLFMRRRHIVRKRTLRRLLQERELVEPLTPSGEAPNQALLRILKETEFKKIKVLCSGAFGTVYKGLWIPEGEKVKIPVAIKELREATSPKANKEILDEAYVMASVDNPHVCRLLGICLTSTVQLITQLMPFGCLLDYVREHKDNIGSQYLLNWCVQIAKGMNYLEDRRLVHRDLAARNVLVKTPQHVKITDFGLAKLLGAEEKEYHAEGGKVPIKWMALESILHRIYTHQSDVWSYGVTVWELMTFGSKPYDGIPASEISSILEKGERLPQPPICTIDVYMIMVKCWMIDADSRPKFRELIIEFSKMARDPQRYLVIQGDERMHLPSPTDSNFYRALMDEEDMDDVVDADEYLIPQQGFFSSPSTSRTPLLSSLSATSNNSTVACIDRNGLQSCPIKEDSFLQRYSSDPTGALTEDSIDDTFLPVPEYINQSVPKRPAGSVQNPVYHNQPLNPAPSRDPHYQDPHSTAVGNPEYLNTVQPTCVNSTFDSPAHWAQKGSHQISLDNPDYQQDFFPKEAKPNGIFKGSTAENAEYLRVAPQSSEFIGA

panel of 442 kinases [3] = molecular target: T3, panel of 442 kinases (Homo sapiens, UniProt P53350); details: kinase PLK1; for remaining activity at 1 µM: read-out: PLK1 (% of control at 1 µM)
T3 construct: purchased Ambit Biosciences (scanMAXX KINOMEscan)
T3 sequence (P53350 whole entry): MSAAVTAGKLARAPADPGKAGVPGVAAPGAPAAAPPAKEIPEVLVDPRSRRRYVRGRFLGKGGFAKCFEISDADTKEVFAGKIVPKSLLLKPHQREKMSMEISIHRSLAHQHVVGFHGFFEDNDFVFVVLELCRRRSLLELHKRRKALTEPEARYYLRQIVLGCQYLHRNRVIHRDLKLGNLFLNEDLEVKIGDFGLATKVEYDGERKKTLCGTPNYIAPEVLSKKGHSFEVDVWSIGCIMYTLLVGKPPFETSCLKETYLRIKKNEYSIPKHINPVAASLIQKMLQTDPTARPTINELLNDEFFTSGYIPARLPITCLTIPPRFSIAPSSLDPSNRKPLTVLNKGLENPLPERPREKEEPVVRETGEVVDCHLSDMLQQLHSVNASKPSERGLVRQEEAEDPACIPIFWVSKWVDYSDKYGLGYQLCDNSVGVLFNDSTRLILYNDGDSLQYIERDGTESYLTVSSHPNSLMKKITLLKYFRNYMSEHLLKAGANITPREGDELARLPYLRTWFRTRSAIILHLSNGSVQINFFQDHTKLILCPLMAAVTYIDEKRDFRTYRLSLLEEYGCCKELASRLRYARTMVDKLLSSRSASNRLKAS

panel of 442 kinases [4] = molecular target: T4, panel of 442 kinases (Homo sapiens, UniProt Q02156); details: kinase PRKCE; for remaining activity at 1 µM: read-out: PRKCE (% of control at 1 µM)
T4 construct: purchased Ambit Biosciences (scanMAXX KINOMEscan)
T4 sequence (Q02156 1-737): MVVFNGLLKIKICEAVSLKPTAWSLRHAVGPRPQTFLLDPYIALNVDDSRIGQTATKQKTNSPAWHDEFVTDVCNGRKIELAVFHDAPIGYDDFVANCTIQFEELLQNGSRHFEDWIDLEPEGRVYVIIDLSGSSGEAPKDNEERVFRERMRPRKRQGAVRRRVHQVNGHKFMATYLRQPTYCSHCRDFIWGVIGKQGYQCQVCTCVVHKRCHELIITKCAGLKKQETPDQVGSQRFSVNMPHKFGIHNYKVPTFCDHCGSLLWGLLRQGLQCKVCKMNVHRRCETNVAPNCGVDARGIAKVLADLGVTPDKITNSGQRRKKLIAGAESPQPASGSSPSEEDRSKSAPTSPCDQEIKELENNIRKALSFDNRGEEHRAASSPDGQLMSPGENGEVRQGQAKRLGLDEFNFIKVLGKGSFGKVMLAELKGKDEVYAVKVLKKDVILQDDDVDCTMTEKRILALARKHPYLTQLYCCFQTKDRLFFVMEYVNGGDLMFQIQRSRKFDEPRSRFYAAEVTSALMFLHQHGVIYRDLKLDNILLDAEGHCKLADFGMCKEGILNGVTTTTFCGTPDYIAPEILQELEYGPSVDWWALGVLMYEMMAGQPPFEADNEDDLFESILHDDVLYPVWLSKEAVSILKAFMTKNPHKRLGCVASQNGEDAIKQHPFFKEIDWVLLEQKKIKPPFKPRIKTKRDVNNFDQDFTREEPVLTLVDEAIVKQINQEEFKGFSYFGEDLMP

panel of 442 kinases [5] = molecular target: T5, panel of 442 kinases (Homo sapiens, UniProt Q02779); details: kinase MLK2; for remaining activity at 1 µM: read-out: % of control at 1 µM
T5 construct: purchased Ambit Biosciences (scanMAXX KINOMEscan)
T5 sequence (Q02779 whole entry): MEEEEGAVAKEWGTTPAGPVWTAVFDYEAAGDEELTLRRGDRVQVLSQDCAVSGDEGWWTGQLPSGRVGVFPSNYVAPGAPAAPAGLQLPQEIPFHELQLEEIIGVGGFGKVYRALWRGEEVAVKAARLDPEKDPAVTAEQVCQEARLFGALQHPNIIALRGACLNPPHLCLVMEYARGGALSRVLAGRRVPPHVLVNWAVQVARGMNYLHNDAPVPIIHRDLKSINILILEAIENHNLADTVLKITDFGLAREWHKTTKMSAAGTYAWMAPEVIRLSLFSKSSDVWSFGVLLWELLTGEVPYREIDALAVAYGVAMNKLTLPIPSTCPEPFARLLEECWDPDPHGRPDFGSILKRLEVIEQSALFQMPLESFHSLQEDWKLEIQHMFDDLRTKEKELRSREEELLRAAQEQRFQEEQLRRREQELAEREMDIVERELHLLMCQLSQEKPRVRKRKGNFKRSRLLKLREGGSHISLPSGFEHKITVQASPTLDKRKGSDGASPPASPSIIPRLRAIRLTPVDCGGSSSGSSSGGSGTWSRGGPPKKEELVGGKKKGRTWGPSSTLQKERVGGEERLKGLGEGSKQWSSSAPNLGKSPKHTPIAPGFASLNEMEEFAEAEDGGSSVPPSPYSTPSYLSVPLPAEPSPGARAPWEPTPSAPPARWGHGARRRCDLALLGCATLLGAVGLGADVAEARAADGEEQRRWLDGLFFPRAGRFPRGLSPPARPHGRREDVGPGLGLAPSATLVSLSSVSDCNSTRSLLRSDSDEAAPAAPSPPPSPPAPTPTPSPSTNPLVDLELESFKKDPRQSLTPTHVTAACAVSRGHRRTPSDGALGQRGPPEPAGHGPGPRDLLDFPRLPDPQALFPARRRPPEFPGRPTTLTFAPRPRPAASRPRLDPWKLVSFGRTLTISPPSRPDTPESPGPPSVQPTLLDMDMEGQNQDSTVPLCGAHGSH

panel of 442 kinases [6] = molecular target: T6, panel of 442 kinases (Homo sapiens, UniProt Q13627); details: DYRK1A; for remaining activity at 1 µM: read-out: % of control at 1 µM
T6 construct: purchased Ambit Biosciences (scanMAXX KINOMEscan)

panel of 442 kinases [7] = molecular target: T7, panel of 442 kinases (Homo sapiens, UniProt Q16512); details: kinase PKN1; for remaining activity at 1 µM: read-out: PKN1 (% of control at 1 µM)
T7 construct: purchased Ambit Biosciences (scanMAXX KINOMEscan)
T7 sequence (Q16512 whole entry): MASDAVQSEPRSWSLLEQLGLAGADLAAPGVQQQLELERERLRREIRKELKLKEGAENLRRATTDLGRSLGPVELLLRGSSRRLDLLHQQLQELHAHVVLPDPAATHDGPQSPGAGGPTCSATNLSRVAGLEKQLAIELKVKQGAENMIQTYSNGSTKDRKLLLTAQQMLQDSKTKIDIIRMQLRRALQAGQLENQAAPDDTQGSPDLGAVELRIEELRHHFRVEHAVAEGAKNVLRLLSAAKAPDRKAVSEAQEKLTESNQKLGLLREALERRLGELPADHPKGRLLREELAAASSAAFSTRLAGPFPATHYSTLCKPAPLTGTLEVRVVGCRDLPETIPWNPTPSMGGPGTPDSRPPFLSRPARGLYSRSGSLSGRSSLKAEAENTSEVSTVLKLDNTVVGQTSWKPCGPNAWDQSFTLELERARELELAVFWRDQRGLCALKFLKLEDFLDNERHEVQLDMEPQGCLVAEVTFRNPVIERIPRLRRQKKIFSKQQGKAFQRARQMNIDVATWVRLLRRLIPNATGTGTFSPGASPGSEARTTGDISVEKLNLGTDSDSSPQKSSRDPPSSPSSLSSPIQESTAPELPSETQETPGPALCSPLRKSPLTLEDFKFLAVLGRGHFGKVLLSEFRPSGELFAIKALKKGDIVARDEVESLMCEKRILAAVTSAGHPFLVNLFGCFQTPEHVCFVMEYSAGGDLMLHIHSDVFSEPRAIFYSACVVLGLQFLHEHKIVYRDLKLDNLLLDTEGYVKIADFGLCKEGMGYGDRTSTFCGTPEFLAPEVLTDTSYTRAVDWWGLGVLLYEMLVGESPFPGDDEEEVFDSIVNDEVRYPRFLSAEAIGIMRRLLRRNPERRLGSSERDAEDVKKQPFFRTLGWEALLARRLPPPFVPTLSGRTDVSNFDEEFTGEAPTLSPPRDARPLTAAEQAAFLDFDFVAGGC

panel of 442 kinases [8] = molecular target: T8, panel of 442 kinases (Homo sapiens, UniProt Q8IWQ3); details: BRSK2; for remaining activity at 1 µM: read-out: % of control at 1 µM
T8 construct: purchased Ambit Biosciences (scanMAXX KINOMEscan)
T8 sequence (Q8IWQ3 1-736): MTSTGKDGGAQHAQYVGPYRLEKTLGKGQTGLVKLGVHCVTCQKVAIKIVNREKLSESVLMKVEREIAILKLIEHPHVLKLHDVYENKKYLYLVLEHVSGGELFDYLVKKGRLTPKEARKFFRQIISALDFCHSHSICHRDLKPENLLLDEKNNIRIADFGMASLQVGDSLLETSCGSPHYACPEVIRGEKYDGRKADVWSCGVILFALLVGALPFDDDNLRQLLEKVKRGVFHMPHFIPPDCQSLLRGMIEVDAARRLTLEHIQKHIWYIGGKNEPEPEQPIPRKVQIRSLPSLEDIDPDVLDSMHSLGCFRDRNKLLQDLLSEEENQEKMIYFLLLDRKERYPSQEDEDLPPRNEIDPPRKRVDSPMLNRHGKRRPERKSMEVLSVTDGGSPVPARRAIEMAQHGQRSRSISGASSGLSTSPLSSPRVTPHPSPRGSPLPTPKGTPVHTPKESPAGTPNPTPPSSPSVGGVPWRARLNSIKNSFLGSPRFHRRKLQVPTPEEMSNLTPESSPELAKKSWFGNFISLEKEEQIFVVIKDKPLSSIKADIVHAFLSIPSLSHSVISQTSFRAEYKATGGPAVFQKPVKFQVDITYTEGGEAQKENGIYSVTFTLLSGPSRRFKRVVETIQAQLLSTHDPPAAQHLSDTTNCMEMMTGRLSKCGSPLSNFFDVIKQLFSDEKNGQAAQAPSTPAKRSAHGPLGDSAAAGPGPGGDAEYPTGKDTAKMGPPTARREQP

panel of 442 kinases [9] = molecular target: T9, panel of 442 kinases (Homo sapiens, UniProt Q99640); details: kinase PKMYT1; for remaining activity at 1 µM: read-out: PKMYT1 (% of control at 1 µM)
T9 construct: purchased Ambit Biosciences (scanMAXX KINOMEscan)
T9 sequence (Q99640 1-499): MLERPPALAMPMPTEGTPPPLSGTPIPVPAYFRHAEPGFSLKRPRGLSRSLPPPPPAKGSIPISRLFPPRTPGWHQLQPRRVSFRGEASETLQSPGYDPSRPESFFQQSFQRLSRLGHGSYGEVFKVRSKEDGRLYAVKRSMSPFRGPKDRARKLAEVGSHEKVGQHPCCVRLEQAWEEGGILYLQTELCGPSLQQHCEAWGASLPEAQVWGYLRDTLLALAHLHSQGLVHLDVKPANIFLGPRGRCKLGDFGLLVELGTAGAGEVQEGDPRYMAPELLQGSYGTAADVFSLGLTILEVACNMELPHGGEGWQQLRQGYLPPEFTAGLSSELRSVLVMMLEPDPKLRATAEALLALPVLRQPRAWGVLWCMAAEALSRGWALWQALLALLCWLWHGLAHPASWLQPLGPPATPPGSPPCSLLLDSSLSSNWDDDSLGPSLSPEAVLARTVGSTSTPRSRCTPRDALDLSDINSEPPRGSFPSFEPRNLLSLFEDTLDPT

panel of 442 kinases [10] = molecular target: T10, panel of 442 kinases (Homo sapiens, UniProt Q9HCP0); details: CSNK1G1; for remaining activity at 1 µM: read-out: % of control at 1 µM
T10 construct: purchased Ambit Biosciences (scanMAXX KINOMEscan)
T10 sequence (Q9HCP0 whole entry): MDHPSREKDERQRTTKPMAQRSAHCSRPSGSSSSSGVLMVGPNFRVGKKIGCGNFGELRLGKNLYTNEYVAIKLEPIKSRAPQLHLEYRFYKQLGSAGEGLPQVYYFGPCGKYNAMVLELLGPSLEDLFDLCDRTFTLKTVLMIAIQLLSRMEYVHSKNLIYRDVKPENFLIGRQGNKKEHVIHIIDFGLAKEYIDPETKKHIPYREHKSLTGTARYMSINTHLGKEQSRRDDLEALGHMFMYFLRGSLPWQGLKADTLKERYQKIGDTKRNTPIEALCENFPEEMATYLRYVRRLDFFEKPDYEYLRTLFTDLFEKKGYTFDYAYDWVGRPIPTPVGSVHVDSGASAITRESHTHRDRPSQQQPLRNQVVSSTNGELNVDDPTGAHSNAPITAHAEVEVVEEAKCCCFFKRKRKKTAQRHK

panel of 442 kinases [11] = molecular target: T11, panel of 442 kinases (Plasmodium falciparum, UniProt P61075); details: kinase PFPK5(P.falciparum); for remaining activity at 1 µM: read-out: % of control at 1 µM; for remaining activity at 10 µM: read-out: % of control at 10 µM
T11 construct: purchased Ambit Biosciences (scanMAXX KINOMEscan)
T11 sequence (P61075 whole entry): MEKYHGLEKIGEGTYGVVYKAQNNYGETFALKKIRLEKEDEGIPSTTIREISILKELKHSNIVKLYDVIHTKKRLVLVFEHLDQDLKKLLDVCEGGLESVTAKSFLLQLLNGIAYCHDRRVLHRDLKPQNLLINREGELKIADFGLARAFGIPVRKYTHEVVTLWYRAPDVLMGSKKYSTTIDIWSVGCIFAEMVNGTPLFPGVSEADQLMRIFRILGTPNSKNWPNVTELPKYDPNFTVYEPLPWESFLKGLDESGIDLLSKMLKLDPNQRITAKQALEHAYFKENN

[12] = 10 µM, read-out: % of control at 10 µM

Work on `Nc1cc(C(F)(F)F)c(-c2cc(N3CCOCC3)nc(N3CCOCC3)n2)cn1` [Buparlisib] yielded a remaining activity at 1 µM (panel of 442 kinases [1]; ABL1(F317I)-nonphosphorylated) of 100%, a remaining activity at 10 µM (panel of 442 kinases [1]; ABL1(F317I)-nonphosphorylated) of 100% and a remaining activity at 1 µM (panel of 442 kinases [1]; ABL1(F317I)-phosphorylated) of 78%. For the same molecule, the remaining activity at 10 µM (panel of 442 kinases [1]; ABL1(F317I)-phosphorylated) was 100%, the remaining activity at 1 µM (panel of 442 kinases [2]) was 84% and the remaining activity at 10 µM (panel of 442 kinases [2]; [12]) was 83%. It also gave a remaining activity at 1 µM (panel of 442 kinases [3]) of 65%, a remaining activity at 10 µM (panel of 442 kinases [3]; 10 µM, read-out: PLK1 (% of control at 10 µM)) of 84% and a remaining activity at 1 µM (panel of 442 kinases [4]) of 97%. For the same molecule, the remaining activity at 10 µM (panel of 442 kinases [4]; 10 µM, read-out: PRKCE (% of control at 10 µM)) was 100%, the remaining activity at 1 µM (panel of 442 kinases [5]) was 100% and the remaining activity at 10 µM (panel of 442 kinases [5]; [12]) was 100%. For the same molecule, the remaining activity at 1 µM (panel of 442 kinases [6]) was 80%, the remaining activity at 10 µM (panel of 442 kinases [6]; [12]) was 51% and the remaining activity at 1 µM (panel of 442 kinases [7]) was 89%. The remaining activity at 10 µM (panel of 442 kinases [7]; 10 µM, read-out: PKN1 (% of control at 10 µM)) was 100%, the remaining activity at 1 µM (panel of 442 kinases [8]) was 100% and the remaining activity at 10 µM (panel of 442 kinases [8]; [12]) was 100%. The remaining activity at 1 µM (panel of 442 kinases [9]) was 100%, the remaining activity at 10 µM (panel of 442 kinases [9]; 10 µM, read-out: PKMYT1 (% of control at 10 µM)) was 100% and the remaining activity at 1 µM (panel of 442 kinases [10]) was 95%. It also gave a remaining activity at 10 µM (panel of 442 kinases [10]; [12]) of 95%, a remaining activity at 1 µM (panel of 442 kinases [11]) of 100% and a remaining activity at 10 µM (panel of 442 kinases [11]) of 100%.

For `Cn1c(=O)n(-c2ccc(C(C)(C)C#N)cc2)c2c3cc(-c4cnc5ccccc5c4)ccc3ncc21` [Dactolisib, 2-methyl-2-[4-(3-methyl-2-oxo-8-quinolin-3-yl-2,3-dihydroimidazo[4,5-c]quinolin-1-yl)-phenyl] propionitrile], the remaining activity at 1 µM (panel of 442 kinases [1]; ABL1(F317I)-nonphosphorylated) was 100%, the remaining activity at 1 µM (panel of 442 kinases [1]; ABL1(F317I)-phosphorylated) was 100% and the remaining activity at 1 µM (panel of 442 kinases [3]) was 93%. The remaining activity at 1 µM (panel of 442 kinases [4]) was 78%, the remaining activity at 1 µM (panel of 442 kinases [5]) was 100% and the remaining activity at 1 µM (panel of 442 kinases [6]) was 100%. It also gave a remaining activity at 1 µM (panel of 442 kinases [7]) of 100%, a remaining activity at 1 µM (panel of 442 kinases [8]) of 91% and a remaining activity at 1 µM (panel of 442 kinases [9]) of 75%. It also gave a remaining activity at 1 µM (panel of 442 kinases [10]) of 67% and a remaining activity at 1 µM (panel of 442 kinases [11]) of 100%.

In the case of `COc1ncc(-c2ccc3nccc(-c4ccnnc4)c3c2)cc1NS(=O)(=O)c1ccc(F)cc1F` [Omipalisib], the remaining activity at 1 µM (panel of 442 kinases [1]; ABL1(F317I)-nonphosphorylated) is reported as 100%, the remaining activity at 1 µM (panel of 442 kinases [1]; ABL1(F317I)-phosphorylated) is reported as 100% and the remaining activity at 1 µM (panel of 442 kinases [2]) is reported as 100%. The remaining activity at 1 µM (panel of 442 kinases [3]) was 97%, the remaining activity at 1 µM (panel of 442 kinases [4]) was 100% and the remaining activity at 1 µM (panel of 442 kinases [5]) was 98%. It also gave a remaining activity at 1 µM (panel of 442 kinases [6]) of 100%, a remaining activity at 1 µM (panel of 442 kinases [7]) of 94% and a remaining activity at 1 µM (panel of 442 kinases [8]) of 95%. For the same molecule, the remaining activity at 1 µM (panel of 442 kinases [9]) was 81%, the remaining activity at 1 µM (panel of 442 kinases [10]) was 100% and the remaining activity at 1 µM (panel of 442 kinases [11]) was 100%.

`CS(=O)(=O)N1CCN(Cc2cc3nc(-c4cccc5[nH]ncc45)nc(N4CCOCC4)c3s2)CC1` [Pictilisib, 2-(1H-indazol-4-yl)-6-(4-methanesulfonyl-piperazin-1-ylmethyl)-4-morpholin-4-yl-t hieno[3,2-d]pyrimidine] gave a remaining activity at 1 µM (panel of 442 kinases [11]) of 92% and a remaining activity at 10 µM (panel of 442 kinases [11]) of 100%.

Molecule `FC(F)c1nc2ccccc2n1-c1nc(N2CCOCC2)nc(N2CCOCC2)n1` [ZSTK474, 2-(difluoromethyl)-1-[4,6-di(4-morpholinyl)-1,3,5-triazin-2-yl]-1H-benzimidazole] has a remaining activity at 1 µM (panel of 442 kinases [1]; ABL1(F317I)-nonphosphorylated) of 100%, a remaining activity at 1 µM (panel of 442 kinases [1]; ABL1(F317I)-phosphorylated) of 88% and a remaining activity at 1 µM (panel of 442 kinases [2]) of 97%. The remaining activity at 1 µM (panel of 442 kinases [3]) was 62%, the remaining activity at 1 µM (panel of 442 kinases [4]) was 100% and the remaining activity at 1 µM (panel of 442 kinases [5]) was 100%. It also gave a remaining activity at 1 µM (panel of 442 kinases [6]) of 100%, a remaining activity at 1 µM (panel of 442 kinases [7]) of 90% and a remaining activity at 1 µM (panel of 442 kinases [8]) of 100%. It also gave a remaining activity at 1 µM (panel of 442 kinases [9]) of 72%, a remaining activity at 1 µM (panel of 442 kinases [10]) of 81% and a remaining activity at 1 µM (panel of 442 kinases [11]) of 100%.
